Data from the NIST ThermoML archive (doi:10.1021/je8003782).
Where “and” joins values, the source holds several entries; their conditions need not be identical. Identical values can stand only once.

Tests used:
[1] = 101.3 kPa, Liquid
[2] = xn = mol fraction of the nth substance listed; settings: 101 kPa, Liquid

CC(=O)OC(C)=O [ethanoic anhydride]
[1]
Settings | mass density [kg/m3] | viscosity [mPa·s]
293.15 K | 1080.89 | 0.888
298.15 K | 1074.8 | 0.829
303.15 K | 1068.7 | 0.778
308.15 K | 1062.61 | 0.729
313.15 K | 1056.49 | 0.688
318.15 K | 1050.38 | 0.648
323.15 K | 1044.24 | 0.61
328.15 K | 1038.07 | 0.58
333.15 K | 1031.9 | 0.548
338.15 K | 1025.7 | 0.521

CC(=O)O [acetic acid] + CC(=O)OC(C)=O
[2], x1 = 1
Settings | mass density [kg/m3] | viscosity [mPa·s]
293.15 K | 1049.42 | 1.204
298.15 K | 1043.76 | 1.114
303.15 K | 1038.1 | 1.037
308.15 K | 1032.44 | 0.964
313.15 K | 1026.77 | 0.902
318.15 K | 1021.11 | 0.841
323.15 K | 1015.44 | 0.787
328.15 K | 1009.77 | 0.741
333.15 K | 1004.09 | 0.697
338.15 K | 998.38 | 0.657

CC(=O)O [acetic acid] + C1N2CN3CN1CN(C2)C3
[2], x2 = 0
Settings | mass density [kg/m3] | viscosity [mPa·s]
293.15 K | 1049.42 | 1.204
298.15 K | 1043.76 | 1.114
303.15 K | 1038.1 | 1.037
308.15 K | 1032.44 | 0.964
313.15 K | 1026.77 | 0.902
318.15 K | 1021.11 | 0.841
323.15 K | 1015.44 | 0.787
328.15 K | 1009.77 | 0.741
333.15 K | 1004.09 | 0.697

CC(=O)O [acetic acid]
[1]
Settings | mass density | viscosity
293.15 K | 1049.42 kg/m3 and 1049.42 kg/m3 | 1.204 mPa·s and 1.204 mPa·s
298.15 K | 1043.76 kg/m3 and 1043.76 kg/m3 | 1.114 mPa·s and 1.114 mPa·s
303.15 K | 1038.1 kg/m3 and 1038.1 kg/m3 | 1.037 mPa·s and 1.037 mPa·s
308.15 K | 1032.44 kg/m3 and 1032.44 kg/m3 | 0.964 mPa·s and 0.964 mPa·s
313.15 K | 1026.77 kg/m3 and 1026.77 kg/m3 | 0.902 mPa·s and 0.902 mPa·s
318.15 K | 1021.11 kg/m3 and 1021.11 kg/m3 | 0.841 mPa·s and 0.841 mPa·s
323.15 K | 1015.44 kg/m3 and 1015.44 kg/m3 | 0.787 mPa·s and 0.787 mPa·s
328.15 K | 1009.77 kg/m3 and 1009.77 kg/m3 | 0.741 mPa·s and 0.741 mPa·s
333.15 K | 1004.09 kg/m3 and 1004.09 kg/m3 | 0.697 mPa·s and 0.697 mPa·s
338.15 K | 998.38 kg/m3 | 0.657 mPa·s
